Measurements reported in paper PMC7658428, “Pigment Dispersing Factors and Their Cognate Receptors in a Crustacean Model, With New Insights Into Distinct Neurons and Their Functions” (Frontiers in Neuroscience, 2020).
“Also recorded” adds a separate entry of the source. Where no end group is shown, it is not given here.

Columns and labels:
PDHR 43673 = biological target: T1, PDHR 43673 (Carcinus maenas, UniProt A0A7G7MT97); assay: heterologous aequorin-based receptor luminescence assay, PDHR 43673; assay type: cell-based; conditions: Ca2+ luminescence; for activation of PDHR 43673 (in words): CHO-K1-Aeq-Gα16 cells
T1 sequence (A0A7G7MT97 1-455): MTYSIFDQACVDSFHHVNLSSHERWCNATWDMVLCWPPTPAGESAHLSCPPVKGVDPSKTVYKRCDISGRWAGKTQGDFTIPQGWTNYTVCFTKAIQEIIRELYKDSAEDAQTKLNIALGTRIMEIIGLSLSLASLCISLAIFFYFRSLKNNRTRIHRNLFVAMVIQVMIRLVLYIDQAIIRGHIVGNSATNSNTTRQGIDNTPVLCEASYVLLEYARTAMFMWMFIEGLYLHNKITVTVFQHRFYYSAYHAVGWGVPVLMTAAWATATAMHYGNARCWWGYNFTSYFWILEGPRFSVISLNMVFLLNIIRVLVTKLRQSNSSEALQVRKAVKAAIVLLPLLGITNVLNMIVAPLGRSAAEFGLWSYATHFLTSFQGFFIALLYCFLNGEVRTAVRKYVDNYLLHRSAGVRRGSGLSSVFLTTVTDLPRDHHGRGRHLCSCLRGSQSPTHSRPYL
Experimental: (§1) PCR of these transcripts was performed as described previously ([Alexander J. et al., 2018]; [Alexander J. L. et al., 2018]). Primer sequences for directional cloning and expression are shown in Supplementary Table 1. Correctly sized PCR products were directionally cloned into pcDNA 3.1 D/V5-His-TOPO plasmids (Invitrogen) and the recombinant vector transformed into TOP 10 competent cells (Invitrogen). Positive clones were cultured overnight in selective LB medium with 100 μg ml^–1 ampicillin, plasmids extracted (FastPlasmid Mini Kit, 5Prime, Hamburg, Germany), resequenced to confirm insert orientation and verification (MWG Eurofins, Ebersberg, Germany), and analyzed using Geneious V 9.1.8.
(§2) A heterologous cell–based assay using Chinese hamster ovary cells (CHO-K1) expressing apoaequorin (Perkin Elmer, Boston, MA, […]) and either the Gα16 or Gq subunit (control cells) was used to report intracellular Ca^2+ fluxes after exposure to ligand, as previously detailed ([Alexander J. et al., 2018]; [Alexander J. L. et al., 2018]).
(§3) Peptides used in the luminescence assay were synthetic C. maenas PDH-1-3 and e-PDH, DH-31 (Genecust Dudelange, Luxembourg). Peptides were reconstituted in 30% acetonitrile, aliquoted and dried by vacuum centrifugation and subsequently re-dissolved in BSA medium (DMEM/F, 50 mM HEPES, 0.1% BSA) immediately prior to assay, and dispensed into quadruplicate wells of white 96 well plates (OptiPlate, Perkin Elmer). Cell suspensions (5 × 10^6 cells/ml) were stirred gently and 50 μl amounts were injected into each well using a Mithras LB940 microplate reader (Berthold Technologies, Bad-Wildbad, Germany). Ca^2+ evoked luminescence was recorded for 40 s, followed by cell lysis (injection of 0.3% Triton-X 100 in BSA medium), and light emission recorded for a further 10 s. BSA medium was used for blank measurements (6 replicates per plate), and mock transfections with empty vectors for negative controls. Data reduction and analysis was done using MikroWin v5.18 (Mikrotek Laborsysteme, GmBH, Overath, Germany) and SigmaPlot v.13 (Systat Software Inc., San José CA, United States). Receptor responses were normalized against total Ca^2+ luminescence.

[1] = test system: black chromatophores (melanophores) in the dactyl of the last walking leg; assay: chromatophore dispersion bioassay in vivo, black chromatophores (melanophores); set-up: species or system Carcinus maenas; conditions: injected 0.05–5 pmol per crab; n = 6 crabs; melanophores were invariably partially dispersed in all crabs
Experimental: (§4) The pigmentary effector activity of all PDHs was measured in vivo using small (15–20 mm carapace width) C. maenas, which were light adapted against a white background (300 lux for 1 h). Pigment dispersion of the red and black chromatophores in the dactyl of the last walking leg was observed microscopically and indices of dispersion scored ([Hogben and Slome, 1931]). Peptides were reconstituted in physiological saline ([Saver et al., 1999]) immediately prior to assay, to minimize Met oxidation (storage of reconstituted peptides in frozen saline for extended periods completely abolished biological activity) and injected (10 μl) using hand-drawn, calibrated microcapillaries at 50–0.05 pmol per crab, with saline controls. Chromatophore dispersion indices were scored at 20 min intervals for 1 h.
(§5) FIGURE 9 The effect of PDHs on pigment migration in epidermal chromatophores of the 5th walking leg dactylus of C. maenas. Left panel: erythrophores, right panel: melanophores. Peptides were injected at 0.05–5 pmol per crab for PDH-1, -2, 5–50 pmol per crab for PDH-3, e-PDH, in 10 μl volumes. Mean (n = 6 crabs) chromatophore indices (Hogben-Slome) are indicated. Asterisks indicate significant differences in chromatophore stage (p < 0.05, Wilcoxon sign-rank test) 40 min after injection of peptide, compared to 0 min.

[2] = test system: red and black chromatophores in the dactyl of the last walking leg; assay: chromatophore dispersion bioassay in vivo, red and black chromatophores; set-up: species or system Carcinus maenas; conditions: n = 6 crabs; for potency in chromatophore dispersion assay (in words): injected 0.05–5 pmol per crab
Experimental: as §4, §5

anti-PDH antiserum R171 = assay: enzyme immunoassay (EIA), cross-reactivity with PDH antiserum R171; assay type: binding; conditions: for dose required to give an absorbance of 1.0 in the EIA: PDH antiserum R171 raised to PDH-1, 1:2000, absorbance at 405 nm
Experimental: Fixed nervous systems were processed for whole mount IHC as previously described ([Webster et al., 2013]). In some, whole eyestalks, including cuticle were taken from postmolt crabs, and routinely fixed (Bouin’s) and processed for paraffin wax embedding; thick serial sections (25–30 μm) were then prepared and processed for IHC. Primary antiserum concentrations [anti-PDH code R171, raised to a thyroglobulin conjugate of PDH-1 as described ([Dircksen et al., 1987]) and characterized ([Wilcockson et al., 2011])] was 1:2000. Secondary antiserum dilution (Alexa Fluor 488 goat anti-rabbit, Invitrogen, Thermo Fisher Scientific) was 1:750. Preparations were mounted on cavity slides using Vectashield (VectorLabs, United Kingdom), cover slipped, sealed with nail varnish, and images collected and Z-stacked at 5 μm intervals on a Zeiss 710 confocal microscope equipped with Zen Black edition software (Carl Zeiss, Jena, Germany).
To identify the neurohormonal PDH inventory, 50 sinus glands (SG) were extracted in 2 M acetic acid and separated by HPLC. Conditions: 4.6 mm × 300 mm Jupiter C18 300 Å column (Phenomenex, Macclesfield, United Kingdom) 40–80% solvent B over 30 min, 1 ml/min, detection at 210 nm, solvent A, 0.11% trifluoroacetic acid (TFA); solvent B 60% acetonitrile, 0.1% TFA. Fractions (1 ml) were dried by vacuum centrifugation and reconstituted in 0.1 M bicarbonate buffer, pH 9.3 immediately prior to immunoassay. Standard PDHs (800 pmol) were subsequently chromatographed to establish SG fractions for further MS analysis. PDH immunoreactive fractions were identified by enzyme immunoassay (EIA). Reconstituted fractions (100 μl) were coated onto high protein binding microplates (Costar 3590, Corning, VWR International, United Kingdom), overnight at 4 °C, followed by washing (3 times with 0.1 M bicarbonate buffer), blocking (0.1% BSA, 1 h RT) and incubation in 100 μl/well 1:2000 anti-PDH in containing 0.1% Tween 20 (PBST), overnight 4 °C. After washing (5 times with PBST), plates were incubated in 1:5000 goat anti-rabbit peroxidase labeled IgG (Vector laboratories, United Kingdom), for 6 h, RT. After washing (5 times with PBST), peroxidase activity was visualized (0.04% ABTS, 0.01% H2O2 (30%), 0.1 M phosphate/citrate buffer, pH 4.0). PDH-1 2500-2.5 fmol per well was used to generate standard curves for quantification. Absorbance at 405 nm was measured on a microplate reader (Mithras LB 940) with data analysis (MikroWin v5.18).

[3] = test system: red chromatophores (erythrophores) in the dactyl of the last walking leg; assay: chromatophore dispersion bioassay in vivo, red chromatophores (erythrophores); set-up: species or system Carcinus maenas; conditions: n = 6 crabs; for dose giving significant dispersion of red chromatophores (erythrophores): 40 min after injection, 10 μl, p < 0.05, Hogben-Slome index; for dispersion of red chromatophores (in words): significant responses to doses of around 0.5 pmol per crab 40 min after injection
Experimental: as §4, §5

PDHR 41189 = biological target: T2, PDHR 41189 (Carcinus maenas, UniProt A0A7G7MT96); assay: heterologous aequorin-based receptor luminescence assay, PDHR 41189; assay type: cell-based; conditions: Ca2+ luminescence; for activation of PDHR 41189 (in words): CHO-K1-Aeq-Gα16 cells
T2 sequence (A0A7G7MT96 1-455): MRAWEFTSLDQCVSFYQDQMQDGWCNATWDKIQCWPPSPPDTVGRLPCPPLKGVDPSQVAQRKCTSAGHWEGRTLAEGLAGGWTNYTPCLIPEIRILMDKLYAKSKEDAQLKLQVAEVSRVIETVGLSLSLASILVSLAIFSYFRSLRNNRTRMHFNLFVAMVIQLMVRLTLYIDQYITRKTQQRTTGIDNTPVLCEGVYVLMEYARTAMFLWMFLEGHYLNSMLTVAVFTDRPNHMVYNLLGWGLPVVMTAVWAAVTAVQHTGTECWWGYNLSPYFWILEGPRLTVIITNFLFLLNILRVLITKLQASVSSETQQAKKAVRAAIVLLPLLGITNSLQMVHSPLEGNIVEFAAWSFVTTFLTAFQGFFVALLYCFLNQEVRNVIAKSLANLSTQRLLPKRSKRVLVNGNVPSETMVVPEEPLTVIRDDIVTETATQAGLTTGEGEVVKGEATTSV
Experimental: as §1, §2, §3

Row | Substance | activation of PDHR 43673 (in words) (PDHR 43673) | dispersion of black chromatophores (melanophores) (in words) [1] | potency in chromatophore dispersion assay (in words) [2] | specificity of antiserum (in words) (anti-PDH antiserum R171; PDH antiserum R171) | dose required to give an absorbance of 1.0 in the EIA (anti-PDH antiserum R171) | dose giving significant dispersion of red chromatophores (erythrophores) [3] | dispersion of red chromatophores (in words) [3] | activation of PDHR 41189 (in words) (PDHR 41189) | dispersion of red chromatophores at the lowest dose (in words) ([3]; lowest dose, 50 fmol per crab) | chromatophore-dispersing activity (in words) ([2]; 5–50 pmol per crab, highest dose 50 pmol per crab) | EC50 (PDHR 43673; approximate EC50, CHO-K1-Aeq-Gα16 cells transiently expressing PDHR 43673, means of N = 4, normalized against maximum luminescence responses for PDH-1) [µM] | EC50 (PDHR 41189; approximate EC50, CHO-K1-Aeq-Gα16 cells transiently expressing PDHR 41189, means of N = 4, normalized against maximum luminescence responses for PDH-1) [nM]
1 | NSELINSILGLPKVMNDA-NH2 [PDH-1] | activated by PDH-1 and PDH-2 at low nanomolar doses; also recorded: much more sensitive and larger luminescence responses; also recorded: activated the 43673 receptor in the low nanomolar range; also recorded: pronounced selectivity for PDH-1, -2 | also dispersed black chromatophores (melanophores), but to a lesser extent | exhibit biological activity in the chromatophore dispersion assay | rather marked specificity to PDH-1; also recorded: marked selectivity for this peptide | 150 fmol | around 0.5 pmol per crab | effective in dispersing red chromatophores (erythrophores) | high nanomolar concentrations of PDH-1, -2 were needed to result in a luminescent signal | – | – | – | –
2 | NSELINSLLGLSRLMNEA-NH2 [PDH-2] | activated by PDH-1 and PDH-2 at low nanomolar doses; also recorded: much more sensitive and larger luminescence responses; also recorded: activated the 43673 receptor in the low nanomolar range; also recorded: pronounced selectivity for PDH-1, -2 | also dispersed black chromatophores (melanophores), but to a lesser extent | exhibit biological activity in the chromatophore dispersion assay; also recorded: very potent in the chromatophore dispersion assay | – | > 10,000 fmol | around 0.5 pmol per crab | effective in dispersing red chromatophores (erythrophores) | high nanomolar concentrations of PDH-1, -2 were needed to result in a luminescent signal | some pigment dispersion was observed at the lowest dose (50 fmol per crab) although this was transient and statistically not significant | – | – | –
3 | NSELINTLLGSQDLGNMRNA-NH2 [e-PDH] | micromolar concentrations of PDH-3 and e-PDH were necessary to activate this receptor; also recorded: even micromolar concentrations of PDH-3 and e-PDH were needed to produce rather weak luminescence responses | – | – | – | 8000 fmol | – | – | activated by PDH-3 and an extended 20 residue e-PDH; also recorded: activated by PDH-3 and e-PDH at low nanomolar concentrations; also recorded: low nanomolar concentrations of PDH-3 and e-PDH activated this receptor; also recorded: preferentially activated by PDH-3 and e-PDH | – | entirely without chromatophore-dispersing activity, even at the highest dose used | – | –
4 | PDH-3: synthetic C. maenas pigment dispersing hormone 3, 18 residues, C-terminal Ala-amide; MN602309 | – | – | – | – | – | – | – | – | – | – | 10 | 25
5 | diuretic hormone-31 [DH-31, reference compound] | Neither receptor was activated by DH-31 | – | – | – | – | – | – | Neither receptor was activated by DH-31 | – | – | – | –
